Where “and” joins values, the source holds several entries; their conditions need not be identical. Identical values can stand only once.
System: receptors coupled to Gi proteins expressed on osteoblasts
Experiment: Cellular Dielectric Spectroscopy (CDS, CELLKEY) response to Gi-coupled receptor ligands in osteoblasts from control and AIS subjects
Format: cell-based, human
Conditions: for dZiec value / Absolute dZiec, control value of max diff. (maximal control value) / Absolute dZiec, control value of min diff. (minimal control value) / Absolute dZiec, Group 1, max diff. (group value) / Absolute dZiec, Group 1, min diff. (group value) / Absolute dZiec, Group 2, max diff. (group value) / Absolute dZiec, Group 2, min diff. (group value) / Absolute dZiec, Group 3, max diff. (group value) / Absolute dZiec, Group 3, min diff. (group value): 300 μM ligand; for dZiec value: n1, n2 of Exper. 1-3; for Absolute dZiec, control value of max diff. (maximal control value) / Absolute dZiec, control value of min diff. (minimal control value): osteoblasts of control subjects; for Absolute dZiec, control value of max diff. (maximal control value) / Absolute dZiec, control value of min diff. (minimal control value) / Absolute dZiec, Group 1, max diff. (group value) / Absolute dZiec, Group 1, min diff. (group value) / Absolute dZiec, Group 2, max diff. (group value) / Absolute dZiec, Group 2, min diff. (group value) / Absolute dZiec, Group 3, max diff. (group value) / Absolute dZiec, Group 3, min diff. (group value): from FIGS. 11A-11F; for Absolute dZiec, Group 1, max diff. (group value) / Absolute dZiec, Group 1, min diff. (group value) / % of control signal, Group 1, max diff. / % of control signal, Group 1, min diff. / Absolute dZiec, Group 2, max diff. (group value) / Absolute dZiec, Group 2, min diff. (group value) / % of control signal, Group 2, max diff. / % of control signal, Group 2, min diff. / Absolute dZiec, Group 3, max diff. (group value) / Absolute dZiec, Group 3, min diff. (group value) / % of control signal, Group 3, max diff. / % of control signal, Group 3, min diff.: osteoblasts; for Absolute dZiec, Group 1, max diff. (group value): AIS Group 1 value of max diff.; for Absolute dZiec, Group 1, min diff. (group value): AIS Group 1 value of min diff.; for % of control signal, Group 1, max diff.: AIS Group 1 vs maximal control value; for % of control signal, Group 1, min diff.: AIS Group 1 vs minimal control value; for Absolute dZiec, Group 2, max diff. (group value): AIS Group 2 value of max diff.; for Absolute dZiec, Group 2, min diff. (group value): AIS Group 2 value of min diff.; for % of control signal, Group 2, max diff.: AIS Group 2 vs maximal control value; for % of control signal, Group 2, min diff.: AIS Group 2 vs minimal control value; for Absolute dZiec, Group 3, max diff. (group value): AIS Group 3 value of max diff.; for Absolute dZiec, Group 3, min diff. (group value): AIS Group 3 value of min diff.; for % of control signal, Group 3, max diff.: AIS Group 3 vs maximal control value; for % of control signal, Group 3, min diff.: AIS Group 3 vs minimal control value
From the text: Bone specimens were obtained intraoperatively from vertebras (varying from T3 to L4 according to the surgical procedure performed), while with trauma cases used as non-scoliotic controls bone specimens were obtained from other anatomical sites (tibia or femur, and in one case from an iliac crest biopsy). Osteoblasts and myoblasts isolated as previously described (Moreau A, Wang D S, Forget S et al. Melatonin Signaling Dysfunction in Adolescent Idiopathic Scoliosis. Spine 2004; 29:1772-81; Azeddine et al., 2007 Molecular determinants of melatonin signaling dysfunction in adolescent idiopathic scoliosis. Clin Orthop Relat Res. 2007, 462:45-52), were cultured at 37° C./5% CO2 in MEM supplemented with 10% fetal bovine serum (FBS) and 100 μg/mL streptomycin. Prior to the experiment, cells were seeded into the CELLKEY™ label-free cellular analysis system standard 96-well plates at a density of 5×10^4/well and grown for 24 h and incubated in standard conditions (37° C./5% CO2). In some plates, Pertussis toxin (100 ng/mL, Sigma, Oakville, ON, Canada) treatment was performed 16 h before the CDS assay. Following overnight incubation, plates were placed onto the CELLKEY™ label-free cellular analysis system and growth medium was exchanged to assay buffer (Hanks, Balanced Salt Solution containing 20 mM HEPES and 0.1% BSA) before starting the experiment. Cells were then allowed to equilibrate at room temperature for 30 min. Pre-addition measurements were made for 5 min to obtain a baseline reading. […] The quick update rate (2 s.) of the CELLKEY™ label-free cellular analysis system allows detection of these immediate changes in impedance. Impedance measurements were collected for 10 min to 15 min at 28° C. after ligand addition to monitor cellular responses to ligand interaction and to generate CELLKEY™ label-free cellular analysis system response profiles that are characteristic of the signaling mechanisms used.
The response induced by the various ligands to their receptors was measured by cellular dielectric spectroscopy (CDS) using the CELLKEY™ label-free cellular analysis technology. (MDS Sciex, San Francisco, Calif., USA). The CELLKEY™ label-free cellular analysis system integrates a proprietary impedance measurement system, custom 96-well microliter plate, onboard 96-well fluidics, and environment control and custom acquisition and analysis software in a full solution package (MDS Sciex) that is compatible with commercially available robotic platforms. Small voltage at 24 frequencies, from 1 KHz to 10 MHz, is applied to a monolayer of cells settled in a 96-well microplate containing electrodes at the bottom, and the resultant current is measured at an update rate of 2 s. […] Onboard fluid additions and exchanges are handled by 96-well head fluid delivery device with a range of 5-500 μL. In addition to the cell plate location, the CELLKEY™ label-free cellular analysis system includes two additional stations for 96- or 384-well compound plates. All aspects of assay set up, execution, and data acquisition and analysis are controlled by CELLKEY™ label-free cellular analysis software.
The minimal (min) and maximal (max) values represent the mean of three independent measurements performed in duplicate (six values in total) for a given patient/control subject. […] Duplicates (n1 and n2) of three independent experiments are presented.

[1] = osteoblasts of AIS#1020 (Group 3) relative to CTR#60
[2] = osteoblasts of AIS#1020 (Group 3)
[3] = osteoblasts of AIS#1198 (Group 3 in Table II) relative to CTR#69
[4] = osteoblasts of AIS#1198 (Group 3 in Table II)
[5] = osteoblasts of AIS#1468 (Group 3) relative to CTR#61
[6] = osteoblasts of AIS#1468 (Group 3)
[7] = osteoblasts of AIS#1474 (Group 1) relative to CTR#60
[8] = osteoblasts of AIS#1474 (Group 1)
[9] = osteoblasts of AIS#1488 (Group 1) relative to CTR#69
[10] = osteoblasts of AIS#1488 (Group 1)
[11] = osteoblasts of AIS#1513 (Group 3) relative to CTR#61
[12] = osteoblasts of AIS#1513 (Group 3)
[13] = osteoblasts of AIS#1549 (Group 1) relative to CTR#61
[14] = osteoblasts of AIS#1549 (Group 1)
[15] = osteoblasts of AIS#1550 (Group 2) relative to CTR#60
[16] = osteoblasts of AIS#1550 (Group 2)

Structure (SMILES)	% of control [1]	dZiec value [2]	% of control [3]	dZiec value [4]	% of control [5]	dZiec value [6]	% of control [7]	dZiec value [8]	% of control [9]	dZiec value [10]	% of control [11]	dZiec value [12]	% of control [13]	dZiec value [14]	% of control [15]	dZiec value [16]	dZiec value (osteoblasts of control CTR#60)	dZiec value (osteoblasts of control CTR#61)	dZiec value (osteoblasts of control CTR#69)	Absolute dZiec, control value of max diff. (maximal control value)	other results
O=C(NC1CCCCC1)c1cn(CCN2CCOCC2)c2cc(Cl)ccc2c1=O [CB65, N-Cyclohexyl-7-chloro-1-[2-(4-morpholinyl)ethyl]quinolin-4(1H)-one-3-carboxamide]	43.1% and 47.5% and 45.6% and 43.5% and 46.2%	61.81 and 73.81 and 74.95 and 82.95 and 69.38 and 77.38	51.5% and 55.2% and 57.8% and 59.7% and 55.1% and 57.3%	72.90 and 84.90 and 94.57 and 102.57 and 84.73 and 92.73	57.0% and 60.3% and 64.0% and 65.6% and 61.0% and 62.9%	82.16 and 94.16 and 107.91 and 115.91 and 96.04 and 104.04	25.3% and 24.7% and 26.9% and 24.6% and 23.5% and 27.2%	36.30 and 38.30 and 46.79 and 44.79 and 37.55 and 45.55	29.2% and 28.2% and 33.2% and 30.5% and 28.5% and 32.1%	41.30 and 43.30 and 54.43 and 52.43 and 43.87 and 51.87	74.8% and 76.7% and 76.6% and 77.6% and 75.9% and 77.1%	107.73 and 119.73 and 129.10 and 137.10 and 119.41 and 127.41	25.3% and 18.2% and 19.1% and 22.8% and 19.3% and 23.2%	36.48 and 28.48 and 32.23 and 40.23 and 30.36 and 38.36	38.5% and 36.8% and 38.3% and 35.5% and 35.6% and 38.7%	55.13 and 57.13 and 66.49 and 64.49 and 56.81 and 64.81	143.28/— and 155.28/— and 173.77/— and 181.77/— and 159.53/— and 167.53/—	144.08/— and 156.08/— and 168.59/— and 176.59/— and 157.34/— and 165.34/—	141.68/— and 153.68/— and 163.73/— and 171.73/— and 153.70/— and 161.70/—	169	% of control (osteoblasts of AIS#1385 (Group 2) relative to CTR#69): 46.7% and 50.9% and 51.8% and 54.1% and 49.8% and 52.3%; dZiec value (osteoblasts of AIS#1385 (Group 2)): 66.15 and 78.15 and 84.86 and 92.86 and 76.50 and 84.50; Absolute dZiec, control value of min diff. (minimal control value): 138; Absolute dZiec, Group 1, max diff. (group value): 34; Absolute dZiec, Group 1, min diff. (group value): 47; % of control signal, Group 1, max diff.: 20%; % of control signal, Group 1, min diff.: 34%; Absolute dZiec, Group 2, max diff. (group value): 60; Absolute dZiec, Group 2, min diff. (group value): 88; % of control signal, Group 2, max diff.: 36%; % of control signal, Group 2, min diff.: 64%; Absolute dZiec, Group 3, max diff. (group value): 100; Absolute dZiec, Group 3, min diff. (group value): 123; % of control signal, Group 3, max diff.: 55%; % of control signal, Group 3, min diff.: 89%
Brc1c(NC2=NCCN2)ccc2nccnc12 [UK14304, 5-bromo-N-(4,5-dihydro-1H-imidazol-2-yl)-6-quinoxalinamine]	42.4% and 37.2% and 34.7% and 40.5% and 37.5% and 41.7%	42.74 and 39.74 and 43.5 and 51.5 and 41.62 and 49.62	42.6% and 43.7% and 57.1% and 54.0% and 49.1% and 58.9%	44.16 and 46.16 and 56.22 and 54.22 and 46.19 and 54.19	72.7% and 71.7% and 76.2% and 68.8% and 73.0%	65.72 and 67.72 and 77.77 and 75.77 and 67.75 and 75.75	20.4% and 19.3% and 18.6% and 19.1% and 17.5% and 16.4%	20.6 and 23.35 and 24.35 and 19.48	25.3% and 24.2% and 26.3% and 18.8% and 28.2% and 28.5%	26.24 and 25.55 and 25.92 and 18.92 and 26.55	64.7% and 64.0% and 70.1% and 63.2% and 65.8% and 67.8%	58.45 and 60.45 and 71.58 and 69.58 and 61.02 and 69.02	30.0% and 30.8% and 33.7% and 33.1% and 35.3% and 36.1%	27.08 and 29.08 and 34.45 and 36.45 and 32.76 and 36.76	53.2% and 42.7% and 45.3% and 35.2% and 41.6% and 45.5%	53.62 and 45.62 and 56.75 and 44.75 and 46.19 and 54.19	100.78/— and 106.78/— and 125.27/— and 127.27/— and 111.02/— and 119.02/—	90.39/— and 94.39/— and 102.1/— and 110.1/— and 92.75/— and 101.75/—	103.67/— and 105.67/— and 98.38/— and 100.38/— and 94.02/— and 92.02/—	115	Absolute dZiec, control value of min diff. (minimal control value): 98; Absolute dZiec, Group 1, max diff. (group value): 21; Absolute dZiec, Group 1, min diff. (group value): 32; % of control signal, Group 1, max diff.: 18%; % of control signal, Group 1, min diff.: 33%; Absolute dZiec, Group 2, max diff. (group value): 45; Absolute dZiec, Group 2, min diff. (group value): 50; % of control signal, Group 2, max diff.: 39%; % of control signal, Group 2, min diff.: 51%; Absolute dZiec, Group 3, max diff. (group value): 60; Absolute dZiec, Group 3, min diff. (group value): 71; % of control signal, Group 3, max diff.: 52%; % of control signal, Group 3, min diff.: 72%

From patent US10620222B2, “Electrified compositions for determining the risk of developing adolescent idiopathic scoliosis through the use of GI protein receptor” (CHU Sainte-Justine, priority 2008, dated 2020)
